Source: patent publication US20240166610A1, “SUBSTITUTED PYRIDAZINE PHENOL DERIVATIVES” (MEDSHINE DISCOVERY INC., priority 2021, published 2024)
Structures can show the parent of a compound that is named as a salt.

How the values were obtained:
NLRP3 = target: T1, NLRP3 (Homo sapiens, UniProt Q96P20); assay: Detecting IC50 of NLRP3 inhibitor by using THP-1 cells (IL-1β secretion, CBA); type: cell-based; conditions: PMA/LPS/ATP, IL-1β in supernatant
T1 construct: This experiment utilized the human-derived monocyte cell line THP1; endogenous in cells; host or cells: THP-1 (human monocyte line, PMA-differentiated into macrophages)
T1 sequence (Q96P20 whole entry): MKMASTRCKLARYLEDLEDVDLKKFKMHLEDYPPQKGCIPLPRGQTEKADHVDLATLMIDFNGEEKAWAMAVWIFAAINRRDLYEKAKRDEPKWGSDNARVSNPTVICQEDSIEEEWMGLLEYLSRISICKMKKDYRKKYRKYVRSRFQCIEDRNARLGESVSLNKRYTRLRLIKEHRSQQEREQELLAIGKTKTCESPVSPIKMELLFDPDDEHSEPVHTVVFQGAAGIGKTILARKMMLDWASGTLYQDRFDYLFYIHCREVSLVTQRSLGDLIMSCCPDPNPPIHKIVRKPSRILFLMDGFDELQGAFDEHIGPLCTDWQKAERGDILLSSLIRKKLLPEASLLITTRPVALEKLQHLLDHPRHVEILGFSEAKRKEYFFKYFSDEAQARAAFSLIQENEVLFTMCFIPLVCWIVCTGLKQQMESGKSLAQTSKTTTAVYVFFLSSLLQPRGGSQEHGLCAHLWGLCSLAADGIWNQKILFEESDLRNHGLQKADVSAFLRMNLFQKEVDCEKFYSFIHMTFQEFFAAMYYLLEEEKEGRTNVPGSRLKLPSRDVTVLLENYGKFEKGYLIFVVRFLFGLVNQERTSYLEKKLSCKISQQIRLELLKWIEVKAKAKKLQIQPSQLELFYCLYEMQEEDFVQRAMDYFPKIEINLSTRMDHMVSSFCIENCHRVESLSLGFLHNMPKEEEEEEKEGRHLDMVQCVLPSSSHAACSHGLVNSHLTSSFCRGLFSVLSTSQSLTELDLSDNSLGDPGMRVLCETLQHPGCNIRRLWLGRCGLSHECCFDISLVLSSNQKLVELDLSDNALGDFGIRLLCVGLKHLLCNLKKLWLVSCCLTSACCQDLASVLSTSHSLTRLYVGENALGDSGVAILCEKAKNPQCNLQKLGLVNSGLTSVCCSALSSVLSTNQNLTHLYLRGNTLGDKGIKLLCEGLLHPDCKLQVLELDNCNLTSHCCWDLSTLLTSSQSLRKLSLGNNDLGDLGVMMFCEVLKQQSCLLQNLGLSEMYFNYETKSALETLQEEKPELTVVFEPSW
Source text: 1. Experimental principle: This experiment utilized the human-derived monocyte cell line THP1 to investigate the inhibitory activity (IC50) of NLRP3 inhibitor on cellular IL-1β secretion. PMA (12-O-tetradecanoylphorbol-13-acetate) was used to differentiate the monocyte cell line THP1 into mature macrophages, which were then stimulated using LPS (lipopolysaccharide), an agonist of the Toll-like receptor TLR4, to activate the transcriptional activity of the inflammasome NLRP3 and the expression of pro-IL-1β, a precursor of IL-1β. At this time, the inhibitor of NLRP3 was added, and then ATP (adenosine triphosphate) was added to further mature and activate NLRP3, and activate downstream caspase-1. Activated caspase-1 may enzymatically process pro-IL-1β into mature IL-1β that can be secreted.
(1) The density of THP1 cells was adjusted to 5×10^5 cells/mL, then PMA was added, and the final concentration was adjusted to 100 ng/mL. The cells were inoculated 200 μL/well into a 96-well flat-bottom plate, stimulated overnight (<16 hours if possible) at 37° C. and 5% CO2.
(2) The supernatant was discarded the next day, and then the cells were carefully washed twice with Dulbecco's phosphate-buffered saline (200 μL/time).
(3) The cells were stimulated with LPS at a final concentration of 100 ng/mL, added to a 96-well plate (200 μL/well), and cultured at 37° C. and 5% CO2 for 3 hours.
The cells were incubated for 1 hour in a 37° C., 5% CO2 incubator.
(5) ATP was added to each well with a final concentration of 5 mM, and cultured overnight (>18 hours) at 37° C. and 5% CO2.
(6) On the third day, 5 μL of the supernatant was taken, diluted 10-fold, and the content of IL-1β in the supernatant was detected by cytometric bead array (CBA).

[1] = target: T2, hERG potassium ion channel (Homo sapiens, UniProt Q12809); assay: Inhibition test on hERG potassium ion channel (automated patch clamp, CHO-hERG cells); type: cell-based; conditions: Qpatch, highest test concentration 40.00 μM
T2 construct: expressed in transfected cells; host or cells: CHO (CHO-hERG cell line)
T2 sequence (Q12809 whole entry): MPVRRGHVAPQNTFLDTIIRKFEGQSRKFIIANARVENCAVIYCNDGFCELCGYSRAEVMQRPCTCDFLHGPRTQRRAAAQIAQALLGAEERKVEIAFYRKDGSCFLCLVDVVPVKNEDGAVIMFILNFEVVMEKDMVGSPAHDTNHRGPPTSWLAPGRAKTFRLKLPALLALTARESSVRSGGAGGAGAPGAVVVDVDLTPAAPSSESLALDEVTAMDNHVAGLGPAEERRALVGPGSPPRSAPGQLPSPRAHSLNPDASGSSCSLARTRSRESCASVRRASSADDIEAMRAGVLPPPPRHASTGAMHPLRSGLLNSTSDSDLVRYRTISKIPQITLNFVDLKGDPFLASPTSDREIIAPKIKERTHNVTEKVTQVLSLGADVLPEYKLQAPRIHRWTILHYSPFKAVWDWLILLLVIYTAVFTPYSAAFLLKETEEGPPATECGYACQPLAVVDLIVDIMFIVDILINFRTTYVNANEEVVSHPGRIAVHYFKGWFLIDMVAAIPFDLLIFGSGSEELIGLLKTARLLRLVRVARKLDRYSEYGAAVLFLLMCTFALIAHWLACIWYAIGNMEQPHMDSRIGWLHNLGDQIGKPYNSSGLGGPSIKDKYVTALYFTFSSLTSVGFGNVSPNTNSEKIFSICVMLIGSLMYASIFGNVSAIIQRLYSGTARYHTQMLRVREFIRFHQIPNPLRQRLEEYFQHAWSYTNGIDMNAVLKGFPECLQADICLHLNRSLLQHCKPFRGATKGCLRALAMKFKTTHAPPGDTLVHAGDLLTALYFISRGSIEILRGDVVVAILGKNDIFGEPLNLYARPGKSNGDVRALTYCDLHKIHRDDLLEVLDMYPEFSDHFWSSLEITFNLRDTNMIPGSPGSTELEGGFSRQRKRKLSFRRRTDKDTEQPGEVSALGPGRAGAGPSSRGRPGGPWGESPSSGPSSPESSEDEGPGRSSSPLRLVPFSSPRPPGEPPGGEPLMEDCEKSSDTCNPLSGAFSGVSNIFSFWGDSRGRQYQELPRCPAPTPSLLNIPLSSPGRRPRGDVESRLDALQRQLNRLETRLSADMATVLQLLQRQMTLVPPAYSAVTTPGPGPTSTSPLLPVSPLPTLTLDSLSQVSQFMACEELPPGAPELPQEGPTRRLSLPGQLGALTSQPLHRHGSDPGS
Procedure: Experimental Example 4: Inhibition Test of Compounds on hERG Potassium Ion Channel
Experimental purpose: To detect the effect of the compounds to be tested on the hERG potassium channel by an automated patch clamp method.
1.1 CHO-hERG cells were cultured in a 175 cm^2 culture flask. When the cell density reached 60 to 80%, the culture medium was removed, and the cells were washed once with 7 mL of PBS (phosphate buffered saline), and then digested with 3 mL of digestion solution.
1.2 After the digestion was completed, 7 mL of culture medium was added to neutralize, then the mixture was centrifuged, and the supernatant was aspirated, and then 5 mL of culture medium was added to re-suspend, ensuring 2 to 5×10^6/mL of cell density.
The process of single cell high impedance sealing and whole cell mode formation were all automatically completed by Qpatch instrument, after obtaining the whole cell recording mode, the cells were clamped at −80 mV, before giving a 5-second +40 mV depolarization stimulus, a 50 millisecond −50 mV prevoltage was given first, and then repolarized to −50 mV for 5 seconds, then returned to −80 mV This voltage stimulation was applied every 15 seconds and after recording for 2 minutes, extracellular fluid was recordings for 5 minutes, and then the administration process was started. The compound concentration was given from the lowest test concentration, each test concentration was given for 2.5 minutes, and 3 μM of Cisapride as the positive control compound was given after all concentrations were continuously given. At least 3 cells (n≥3) were tested at each concentration.
4.1 The mother solution of the compound was diluted with DMSO, and 10 μL of mother solution of the compound was added to 20 μL of DMSO solution, and was 3-fold diluted continuously to 6 DMSO concentrations.
4.2 4 μL of compounds with 6 DMSO concentrations were added to 396 μL of extracellular fluid, 100-fold diluted to 6 intermediate concentrations, and then 80 μL of the compounds with 6 intermediate concentrations were added to 320 μL of extracellular fluid, 5-fold diluted to the final concentration to be tested.
4.3 The highest test concentration was 40.00 μM, in a total of 6 concentrations of 40.00, 13.33, 4.44, 1.48, 0.49, and 0.16 μM respectively.
4.4 The content of DMSO in the final test concentration was not more than 0.2%, and this concentration of DMSO had no effect on hERG potassium channel.
4.5 The whole dilution process of compound preparation was completed by Bravo instrument.
The experimental data were analyzed by GraphPad Prism 5.0 software.

[2] = In vivo pharmacokinetic evaluation in SD rats; conditions: male, rat, plasma, dose IV/PO 1/2 mg/kg; for half-life / clearance / Vd: 1 mg/kg; for half-life: IV, read-out: Half-life T1/2 (IV) (converted); for clearance: read-out: Clearance rate CL; for Vd: read-out: Tissue distribution Vdss; for AUC(0-t): PO, read-out: Area under drug-time curve AUC0-last PO; for bioavailability: read-out: Bioavailability F; for Cmax: read-out: Peak concentration Cmax
Procedure: Experimental Example 3: In Vivo Pharmacokinetic Evaluation of Compounds in SD Rats
Experimental Purpose: To Test the In Vivo Pharmacokinetics of the Compounds in SD Rats
The rodent pharmacokinetic characteristics after intravenous injection and oral administration of the compounds were tested using a standard protocol. The candidate compound was prepared as a clear solution during the experiment and given to SD rats for single intravenous injection and oral administration. The vehicle for intravenous injection and oral administration was a mixed vehicle composed of 5% dimethyl sulfoxide and 95% 5% solutol. Four male SD rats were used in this project. Two SD rats were administered intravenously, and plasma samples were collected at 0.083, 0.25, 0.5, 1, 2, 4, 8, and 24 hours after administration. The other two SD rats were administered orally by gavage, and plasma samples were collected at 0.25, 0.5, 1, 2, 4, 8, and 24 hours after administration. The plasma concentration was quantitatively analyzed by LC-MS/MS analysis method, and the pharmacokinetic parameters were calculated, such as peak concentration (Cmaz), clearance rate (CL), half-life (T1/2), […] (Vdss), area under drug-time curve (AUC0-last), bioavailability (F).

[3] = In vivo pharmacokinetic evaluation in CD-1 mice; conditions: male, mouse, plasma; for half-life: IV, read-out: Half-life T1/2 (IV) (converted); for clearance: read-out: Clearance rate CL; for Vd: read-out: Tissue distribution Vdss; for AUC(0-t): PO, read-out: Area under drug-time curve AUC0-last PO; for bioavailability: read-out: Bioavailability F; for Cmax: read-out: Peak concentration Cmax
Procedure: Experimental Example 2: In Vivo Pharmacokinetic Evaluation of Compounds in CD-1 Mice
Experimental purpose: To test the in vivo pharmacokinetics of the compounds in CD-1 mice
CD-1 mice (male, 7 to 9 weeks old)
The rodent pharmacokinetic characteristics after intravenous injection and oral administration of the compounds were tested using a standard protocol. The candidate compound was prepared as a clear solution during the experiment and given to mice for single intravenous injection and oral administration. The vehicle for intravenous injection and oral administration was a mixed vehicle composed of 5% dimethyl sulfoxide and 95% 5% solutol. Four male CD-1 mice were used in this project. Two mice were administered intravenously (IV), and plasma samples were collected at 0 hours (before administration) and 0.0833, 0.25, 0.5, 1, 2, 4, 8, and 24 hours after administration. The other two mice were administered orally by gavage (PO), and plasma samples were collected at 0 hours (before administration) and 0.25, 0.5, 1, 2, 4, 8, and 24 hours after administration. The plasma concentration was quantitatively analyzed by LC-MS/MS analysis method, and the pharmacokinetic parameters were calculated, such as peak concentration (Cmax), clearance rate (CL), half-life (T1/2), […] (Vdss), area under drug-time curve (AUC0-last), bioavailability (F).

Compound: Cc1cc(N[C@@H]2CCCN(CC#N)C2)nnc1-c1ccc2sccc2c1O [Compound 53]
- IC50 (NLRP3): 0.74 nM
- IC50 [1]: 17100 nM
- half-life [2]: 1.12 h
- clearance [2]: 0.618 L/h/kg
- Vd [2]: 0.796 L/kg
- AUC(0-t) [2]: 4.69 µM·h
- bioavailability [2]: 49.8%
- Cmax [2]: 1.52 µM

Compound: Cc1cc(N[C@@H]2CCCN(C3COC3)C2)nnc1-c1ccc2c(c1O)CCC2 [Compound 13]
- IC50 (NLRP3): 1.55 nM
- IC50 [1]: 21100 nM

Compound: Cc1cc(N[C@@H]2CCCN(CC#N)C2)nnc1-c1ccc(C2CC2)cc1O [Compound 23]
- IC50 (NLRP3): 4.7 nM
- IC50 [1]: > 40000 nM
- half-life ([3]; 1 mg/kg, dose IV/PO 1/2 mg/kg): 1.24 h
- clearance ([3]; 1 mg/kg, dose IV/PO 1/2 mg/kg): 0.389 L/h/kg
- Vd ([3]; 1 mg/kg, dose IV/PO 1/2 mg/kg): 0.618 L/kg
- AUC(0-t) ([3]; dose IV/PO 1/2 mg/kg): 10.4 µM·h
- bioavailability ([3]; dose IV/PO 1/2 mg/kg): 79.9%
- Cmax ([3]; dose IV/PO 1/2 mg/kg): 3.84 µM

Compound: Cc1cc(NC2CN(C)CC(F)(F)C2)nnc1-c1ccc2sccc2c1O (single isomer, unassigned) [Compound 70a]
- IC50 (NLRP3): 23.4 nM
- IC50 [1]: 34200 nM

Compound: Cc1cc(N[C@@H]2CCCN(CC#N)C2)nnc1-c1ccc2c(c1O)CCC2 [Compound 12a]
- IC50 (NLRP3): 0.97 nM
- IC50 [1]: 31500 nM

Compound: Cc1cc(N[C@H]2COC[C@@H]2O)nnc1-c1ccc2sccc2c1O [Hydrochloride of compound 59]
- IC50 (NLRP3): 1.73 nM
- IC50 [1]: > 40000 nM

Compound: Cc1cc(NC[C@@H](C)O)nnc1-c1ccc2sccc2c1O [Hydrochloride of compound 57]
- IC50 (NLRP3): 3.37 nM
- IC50 [1]: > 40000 nM

Compound: Cc1cc(N[C@H]2CN3CCC2CC3)nnc1-c1ccc2c(c1O)CCC2 [Hydrochloride of compound 7]
- IC50 (NLRP3): 5.72 nM
- IC50 [1]: 37500 nM

Compound: Cc1cc(N[C@@H]2CCCN(C)C2)nnc1-c1ccc2sccc2c1O [Hydrochloride of compound 20]
- IC50 (NLRP3): 0.08 nM
- IC50 [1]: 10300 nM
- half-life ([3]; 2 mg/kg, dose IV/PO 2/10 mg/kg): 3.26 h
- clearance ([3]; 2 mg/kg, dose IV/PO 2/10 mg/kg): 1.72 L/h/kg
- Vd ([3]; 2 mg/kg, dose IV/PO 2/10 mg/kg): 7.03 L/kg
- AUC(0-t) ([3]; dose IV/PO 2/10 mg/kg): 16 µM·h
- bioavailability ([3]; dose IV/PO 2/10 mg/kg): 96.5%
- Cmax ([3]; dose IV/PO 2/10 mg/kg): 4.29 µM
- half-life [2]: 1.81 h
- clearance [2]: 2.91 L/h/kg
- Vd [2]: 6.79 L/kg
- AUC(0-t) [2]: 0.926 µM·h
- bioavailability [2]: 49.7%
- Cmax [2]: 0.204 µM

Compound: Cc1cc(N[C@@H]2CCCN(C3COC3)C2)nnc1-c1ccc(-c2ccc(F)cc2)cc1O [Compound 21]
- IC50 (NLRP3): 62.7 nM
- IC50 [1]: 10600 nM

Compound: Cc1cc(NC2CN(C)CC(F)(F)C2)nnc1-c1ccc2sccc2c1O (single isomer, unassigned) [Compound 70b]
- IC50 (NLRP3): 3.33 nM
- IC50 [1]: > 40000 nM

Compound: Cc1cc(N[C@@H]2CCCN(C3COC3)C2)nnc1-c1ccc(C2CC2)cc1O [Compound 22]
- IC50 (NLRP3): 9.2 nM
- IC50 [1]: > 40000 nM
- half-life ([3]; 1 mg/kg, dose IV/PO 1/2 mg/kg): 1.13 h
- clearance ([3]; 1 mg/kg, dose IV/PO 1/2 mg/kg): 0.574 L/h/kg
- Vd ([3]; 1 mg/kg, dose IV/PO 1/2 mg/kg): 0.718 L/kg
- AUC(0-t) ([3]; dose IV/PO 1/2 mg/kg): 5.33 µM·h
- bioavailability ([3]; dose IV/PO 1/2 mg/kg): 62.4%
- Cmax ([3]; dose IV/PO 1/2 mg/kg): 3.22 µM

Compound: Cc1cc(N[C@@H]2CCCN(CC(F)(F)F)C2)nnc1-c1ccc2sccc2c1O [Compound 48]
- IC50 (NLRP3): 2.87 nM
- IC50 at 2.5 min ([1]; human, CHO cells that express hERG (CHO-hERG)): ≥ 42600 nM

Compound: Cc1cc(N[C@@H]2CCCC[C@H]2O)nnc1-c1ccc2sccc2c1O [Hydrochloride of compound 60]
- IC50 (NLRP3): 0.436 nM
- IC50 [1]: > 40000 nM
- half-life ([3]; 2 mg/kg, dose IV/PO 2/10 mg/kg): 1.45 h
- clearance ([3]; 2 mg/kg, dose IV/PO 2/10 mg/kg): 0.768 L/h/kg
- Vd ([3]; 2 mg/kg, dose IV/PO 2/10 mg/kg): 1.08 L/kg
- AUC(0-t) ([3]; dose IV/PO 2/10 mg/kg): 48.1 µM·h
- bioavailability ([3]; dose IV/PO 2/10 mg/kg): 147%
- Cmax ([3]; dose IV/PO 2/10 mg/kg): 22.2 µM
- half-life [2]: 1.08 h
- clearance [2]: 0.6 L/h/kg
- Vd [2]: 0.402 L/kg
- AUC(0-t) [2]: 6.66 µM·h
- bioavailability [2]: 71.1%
- Cmax [2]: 2.61 µM
